Literature values in US7678905B2, “Aminotetrahydropyrans as dipeptidyl peptidase-IV inhibitors for the treatment or prevention of diabetes” (Merck Sharp & Dohme Corp., priority 2006, dated 2010).

How the values were obtained:
[1] = system: cardiac allograft; conditions: rats; survival doubled from day 7
[2] = system: hematopoiesis; conditions: mouse, cyclophosphamide-induced neutropenia
[3] = system: GRF degradation in plasma

## CC(C)N1CCC(c2ccccc2)(c2ccccc2)CC1 [Prodipine, Pro-Pro-diphenyl-phosphonate]
[1]
  cardiac allograft survival: 14 day

## CC(C)[C@H](N)C(=O)N1CCC[C@H]1B(O)O [Val-Boro-Pro]
[2]
  effect on hematopoiesis: stimulated hematopoiesis

## diprotin A
[3]
  degradation of GRF to GRF[3-44] in plasma: prevented
